{
  "source": "patent US6130243A",
  "about": "“1,4-benzodioxin derivatives” (Nisshin Flour Milling Co., Ltd., priority 1995, dated 2000)",
  "key": {"β3 [1]": {"biological_target": "T1, β3 (Rattus norvegicus, UniProt P26255)", "T1 construct": "determined by their activity to stimulate adipocyte lipolysis; from tissue; host or cells: adipocytes isolated with collagenase from rat epididymal fat pads", "T1 sequence (P26255 whole entry)": "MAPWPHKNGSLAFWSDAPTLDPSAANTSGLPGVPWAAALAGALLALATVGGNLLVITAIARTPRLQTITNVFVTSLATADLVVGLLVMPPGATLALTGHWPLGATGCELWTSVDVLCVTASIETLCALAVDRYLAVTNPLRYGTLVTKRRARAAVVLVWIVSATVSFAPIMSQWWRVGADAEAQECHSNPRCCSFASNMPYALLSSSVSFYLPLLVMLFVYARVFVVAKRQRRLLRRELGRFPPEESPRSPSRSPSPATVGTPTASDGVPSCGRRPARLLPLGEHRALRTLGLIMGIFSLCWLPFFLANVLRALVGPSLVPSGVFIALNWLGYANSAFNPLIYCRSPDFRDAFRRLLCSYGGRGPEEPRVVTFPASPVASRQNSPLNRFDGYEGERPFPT", "experiment": "β3 agonisitic activity in rats (stimulation of adipocyte lipolysis, rat epididymal fat pads)", "format": "cell-based", "conditions": "rat adipocytes, 37° C., 120 minutes; EC50 relative to compound's own maximum rate of lipolysis; hydrochloride; read-out: Lipolysis Molar EC50 value", "method": "β3 agonisitic activity in rats\nThe β3 agonisitic effect of the compounds of the present invention was determined by their activity to stimulate adipocyte lipolysis. Rat epididymal fat pads were excised and placed in a buffer containing the following composition: 130 mM sodium chloride, 4.7 mM potassium chloride, 1.25 mM magnesium sulfate, 2.8 mM calcium chloride, 10 mM HEPES, 2.5 mM sodium dihydrogenphosphate, 1 g/l glucose and 1% fatty acid-free serum albumin (pH 7.6). All the following procedures were carried out in the above-mentioned buffer. 5 g of a tissue was transferred to a plastic bottle with 10 ml of the buffer solution in which 0.1% collagenase (available from Worthington Biochemical corporation) was added.\nThe tissue was incubated at 37° C. for about 75 minutes with gentle shaking. After the cell suspension was filtered through nylon meshes (No. 100), the cells were washed three times with two volumes of the buffer, and it was again filtered through nylon meshes. The volume was adjusted with the buffer so that the adipocyte was brought to 20% volume. A 0.1 ml aliquot of the cell suspension was added to plastic test tubes with 0.3 ml of the buffer containing vehicle or compound. The cells were incubated at 37° C. for 120 minutes with gentle shaking. The reaction solution (0.3 ml) was transferred to a centrifuge tube with […] of silicone oil (specific gravity 0.96, available from Shinetsu Chemical Industry), centrifuged at 18,500×g for one minute, and the reaction was stopped by removing the adipocyte from the buffer.\nThe amount of glycerol generated from the hydrolysis of triglycerides in the buffer was determined by a method using glycerol-3-phosphate oxidase/p-chlorophenol. […] of the buffer was added to a 96-well plate which contained 0.2 ml of an assay mixture having the following composition: 50 mM Tris (pH 7.5), 5.4 mM p-chlorophenol, 250 mg/ml adenosine-5'-triphosphate disodium, 150 mg 4-aminoantipyrine, 250 U/l glycerol kinase, 500 U/l glycerol-3-phosphate oxidase, 1250 U/l horseradish peroxidase. The plate was incubated at 37° C. for 15 minutes, and then an absorbance at 505 nm was determined. The molar EC50 value is the molar concentration of compound that gives 50% of that compound's own maximum rate of lipolysis."}, "[2]": {"tested_on": "male KKAy mice with hyperglycemia", "experiment": "Anti-hyperglycemic activity in male KKAy mice", "format": "in vivo, mouse", "conditions": "1 mg/kg, orally for 4 days, measured on 5th day; hydrochloride", "method": "The anti-hyperglycemic effect of the present compounds was determined using male KKAy mice with hyperglycemia of 300 mg/dl or more. The compound was orally administrated successively to the hyperglycemic mice for 4 days, and the blood glucose level was measured on the 5th day. The activity of the compounds was compared in terms of percent reduction in blood glucose level (a percentage of the blood glucose level after administration to that before administration). The measurement of blood glucose level was made by the method in which tail vein of mice was dissected with a scalpel and the blood was dropped onto an electrode of glucose sensor (Touekou Super, available from Kodama)."}, "human β3 receptor": {"biological_target": "T2, human β3 receptor (Homo sapiens, UniProt P13945)", "T2 construct": "The human neuroblastoma cells (SK-N-MC) was available from American Type Culture Collection (HTB 10); host or cells: SK-N-MC human neuroblastoma cells", "T2 sequence (P13945 whole entry)": "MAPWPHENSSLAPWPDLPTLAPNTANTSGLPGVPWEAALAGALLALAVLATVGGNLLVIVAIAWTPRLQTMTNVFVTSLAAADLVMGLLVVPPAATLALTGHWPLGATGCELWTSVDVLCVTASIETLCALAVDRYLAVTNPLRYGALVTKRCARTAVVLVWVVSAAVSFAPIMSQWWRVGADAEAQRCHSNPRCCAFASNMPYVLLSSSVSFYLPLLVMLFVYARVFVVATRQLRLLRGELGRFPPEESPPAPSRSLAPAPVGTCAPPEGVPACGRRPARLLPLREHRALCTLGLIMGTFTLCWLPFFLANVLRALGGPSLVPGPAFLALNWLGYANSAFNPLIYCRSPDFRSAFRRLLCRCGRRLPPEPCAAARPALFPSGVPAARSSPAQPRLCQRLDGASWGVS", "experiment": "β3 agonistic activity on human β3 receptor (cAMP production in SK-N-MC human neuroblastoma cells)", "format": "cell-based", "conditions": "0.5 h, 10^-6 M, 37° C., 30 minutes, vs maximum of isopreterenol at 10^-6 M, hydrochloride, read-out: Ability of cAMP production at 10^-6 M, % (vs. Isopreterenol (ISP))", "method": "β3 agonistic activity on human β3 receptor\nThe β3 agonistic activity of the compounds was determined by their abilities to stimulate the intracellular cAMP production of human neuroblast. The human neuroblastoma cells (SK-N-MC) was available from American Type Culture Collection (HTB 10), and the cells were cultured under the atmosphere of 5% CO2 at 37° C. on a 12-well plate in Dulbeccos' modified Eagle's medium containig 10% fetal calf serum. The SK-N-MC cells on reaching semi-confluence were washed twice with 1 ml of Hank's balanced salt solution (HBSS). After the cells were treated with 0.8 ml of HBSS containing 0.25 mM isobutylmethyl-xanthine at room temperature for 5 minutes, 0.1 ml of a test solution was added. Further, after incubation at 37° C. for 30 minutes, the reaction solution was aspirated, and washed twice with 2 ml of an ice-cooled phosphate-buffered saline (PBS). The cells were disrupted with 5 mM Tris buffer (pH 7.4) containing 2 mM EDTA, centrifuged at 18,500×g for one minute, and cAMP concentration in the supernatant was determined by EIA kit (available from Amersham). The ability of cAMP production was determined as a percentage of the compound to maximum activity of cAMP production of isopreterenol at 10^-6 M concentration (Proc. Natl. Acad. Sci. USA, 90, 3665, 1993)."}, "β3 [3]": {"biological_target": "T1, β3", "conditions": "Nature, Vol. 309, 163, 1984; cited from earlier work"}, "β3 [4]": {"tested_on": "β3", "conditions": "cited from earlier work"}, "β1 or β2": {"tested_on": "β1 or β2", "conditions": "thought to cause side-effects; cited from earlier work"}, "[5]": {"tested_on": "animal models of type II diabetes", "conditions": "in vivo; cited from earlier work"}, "[6]": {"conditions": "in vivo; cited from earlier work"}},
  "note": "Structures can show the parent of a compound that is named as a salt.",
  "data": [
    {"smiles": "CCOC(=O)[C@H]1COc2cc(C[C@H](C)NC[C@H](O)c3cccc(Cl)c3)ccc2O1", "note": "[Example 29, (2R,2'S,2\"R)-6-{2-[2-(3-Chlorophenyl)-2-hydroxyethyl]amino}propyl-2,3-dihydro-1,4-benzodioxin-2-carboxylic acid ethyl ester]", "values": [
      {"measurement": "EC50", "setting": "β3 [1]", "result": 0.0017, "unit": "µM"},
      {"measurement": "Percent reduction in blood glucose level, %", "setting": "[2]", "result": 54, "unit": "%"}
    ]},
    {"smiles": "CCOC(=O)[C@H]1COc2cc(C[C@@H](C)NC[C@H](O)c3cccc(Cl)c3)ccc2O1", "note": "[Example 28, (2R,2'R,2\"R)-6-{2-[2-(3-Chlorophenyl)-2-hydroxyethyl]amino}propyl-2,3-dihydro-1,4-benzodioxin-2-carboxylic acid ethyl ester hydrochloride]", "values": [
      {"measurement": "EC50", "setting": "β3 [1]", "result": 0.0001, "unit": "µM"},
      {"measurement": "Percent reduction in blood glucose level, %", "setting": "[2]", "result": 42, "unit": "%"}
    ]},
    {"smiles": "COC(=O)C1COc2cc(CC(C)NCC(O)c3cccc(C(F)(F)F)c3)ccc2O1", "note": "(stereo not drawn) [Example 11, 6-{2-[2-Hydroxy-2-(3-trifluoromethylphenyl)ethyl]amino}propyl-2,3-dihydro-1,4-benzodioxin-2-carboxylic acid methyl ester]", "values": [
      {"measurement": "EC50", "setting": "β3 [1]", "result": 0.0024, "unit": "µM"}
    ]},
    {"smiles": "COC(=O)C1COc2cc(CC(C)NCC(O)c3cccc(OC)c3)ccc2O1", "note": "(stereo not drawn) [Example 1, 6-{2-[2-Hydroxy-2-(3-methoxyphenyl)ethyl]amino}propyl-2,3-dihydro-1,4-benzodioxin-2-carboxylic acid methyl ester]", "values": [
      {"measurement": "EC50", "setting": "β3 [1]", "result": 0.046, "unit": "µM"},
      {"measurement": "Emax at 1 µM", "setting": "human β3 receptor", "result": 21, "unit": "%"},
      {"measurement": "Percent reduction in blood glucose level, %", "setting": "[2]", "result": 53, "unit": "%"}
    ]},
    {"smiles": "COC(=O)C1COc2cc(CC(C)NCC(O)c3ccc4c(c3)OCO4)ccc2O1", "note": "(stereo not drawn) [Example 5, 6-[2-(2-Hydroxy-2-piperonylethyl)amino]propyl-2,3-dihydro-1,4-benzodioxin-2-carboxylic acid methyl ester]", "values": [
      {"measurement": "EC50", "setting": "β3 [1]", "result": 0.1, "unit": "µM"}
    ]},
    {"smiles": "CCOC(=O)C1COc2cc(CC(C)NCC(O)c3ccccc3)ccc2O1", "note": "(stereo not drawn) [Example 3, 6-[2-(2-Hydroxy-2-phenylethyl)amino]propyl-2,3-dihydro-1,4-benzodioxin-2-carboxylic acid ethyl ester]", "values": [
      {"measurement": "EC50", "setting": "β3 [1]", "result": 0.009, "unit": "µM"},
      {"measurement": "Percent reduction in blood glucose level, %", "setting": "[2]", "result": 63, "unit": "%"}
    ]},
    {"smiles": "COC(=O)C1COc2cc(CC(C)NCC(O)c3cccc(Cl)c3)ccc2O1", "note": "(stereo not drawn) [Example 10, 6-{2-[2-(3-Chlorophenyl)-2-hydroxyethyl]amino}propyl-2,3-dihydro-1,4-benzodioxin-2-carboxylic acid methyl ester]", "values": [
      {"measurement": "Emax at 1 µM", "setting": "human β3 receptor", "result": 43, "unit": "%"},
      {"measurement": "Percent reduction in blood glucose level, %", "setting": "[2]", "result": 48, "unit": "%"}
    ]},
    {"smiles": "CCOC(=O)[C@@H]1COc2cc(C[C@H](C)NC[C@H](O)c3cccc(Cl)c3)ccc2O1", "note": "[Example 31, (2S,2'S,2\"R)-6-{2-[2-(3-Chlorophenyl)-2-hydroxyethyl]amino}propyl-2,3-dihydro-1,4-benzodioxin-2-carboxylic acid ethyl ester]", "values": [
      {"measurement": "EC50", "setting": "β3 [1]", "result": 0.1, "unit": "µM"}
    ]},
    {"smiles": "COC(=O)C1COc2cc(CC(C)NCC(O)c3ccc(F)cc3)ccc2O1", "note": "(stereo not drawn) [Example 12, 6-{2-[2-Hydroxy-2-(4-fluorophenyl)ethyl]amino}propyl-2,3-dihydro-1,4-benzodioxin-2-carboxylic acid methyl ester]", "values": [
      {"measurement": "EC50", "setting": "β3 [1]", "result": 0.026, "unit": "µM"},
      {"measurement": "Emax at 1 µM", "setting": "human β3 receptor", "result": 29, "unit": "%"}
    ]},
    {"smiles": "COC(=O)COc1ccc(C[C@@H](C)NC[C@H](O)c2cccc(Cl)c2)cc1", "note": "(relative stereo) [BRL 35135]", "values": [
      {"measurement": "lipolytic activity (β3) in rats, in words", "setting": "β3 [3]", "result": "lipolytic activity (β3) in rats"},
      {"measurement": "β3 agonistic activity, in words", "setting": "β3 [4]", "result": "has β3 agonistic activity"},
      {"measurement": "β1 or β2 agonistic activity, in words", "setting": "β1 or β2", "result": "has β1 or β2 agonistic activity"},
      {"measurement": "anti-hyperglycemic activity, in words", "setting": "[5]", "result": "anti-hyperglycemic activity"},
      {"measurement": "anti-obesity activity, in words", "setting": "[6]", "result": "anti-obesity activity"}
    ]},
    {"smiles": "CCOC(=O)C1COc2ccc(CC(C)NCC(O)c3ccccc3)cc2O1", "note": "(stereo not drawn) [Example 4, 7-[2-(2-Hydroxy-2-phenylethyl)amino]propyl-2,3-dihydro-1,4-benzodioxin-2-carboxylic acid ethyl ester]", "values": [
      {"measurement": "EC50", "setting": "β3 [1]", "result": 0.056, "unit": "µM"}
    ]},
    {"smiles": "CCOC(=O)[C@@H]1COc2cc(C[C@@H](C)NC[C@H](O)c3cccc(Cl)c3)ccc2O1", "note": "[Example 30, (2S,2'R,2\"R)-6-{2-[2-(3-Chlorophenyl)-2-hydroxyethyl]amino}propyl-2,3-dihydro-1,4-benzodioxin-2-carboxylic acid ethyl ester]", "values": [
      {"measurement": "EC50", "setting": "β3 [1]", "result": 0.016, "unit": "µM"}
    ]},
    {"smiles": "COC(=O)C1COc2cc(CC(C)NCC(O)c3cccc(C)c3)ccc2O1", "note": "(stereo not drawn) [Example 2, 6-{2-[2-Hydroxy-2-(3-tolyl)ethyl]amino}propyl-2,3-dihydro-1,4-benzodioxin-2-carboxylic acid methyl ester]", "values": [
      {"measurement": "EC50", "setting": "β3 [1]", "result": 0.004, "unit": "µM"},
      {"measurement": "Emax at 1 µM", "setting": "human β3 receptor", "result": 25, "unit": "%"}
    ]},
    {"smiles": "C[C@H](Cc1ccc(OCC(=O)O)cc1)NC[C@H](O)c1cccc(Cl)c1", "note": "(relative stereo) [BRL 37344]", "values": [
      {"measurement": "anti-hyperglycemic activity, in words", "setting": "[5]", "result": "anti-hyperglycemic activity"},
      {"measurement": "anti-obesity activity, in words", "setting": "[6]", "result": "anti-obesity activity"}
    ]}
  ]
}
